Assays:
Format in all cases: cell-based
Nitrosomonas = test: Nitrosification inhibition activity of syringic acid alone and as promoter of 1,9-decanediol (summary statement)
Source text: The root exudates of 19 rice varieties are collected, concentrated, and determined for their nitrosification inhibition activities by using Nitrosomonas europaea. The varieties with significant effects are further screened out from them, to select a variety of which the root exudate has a significant inhibitory effect and a variety of which the root exudate has an effect opposite to the former, and then they are subjected to GC/MS identification for components thereof. By component comparison of the two varieties, syringic acid (4-Hydroxy 3,5-dimethoxybenzoic acid, with the molecular weight of 198.18) is identified in the root exudate of the rice variety Wuyunjing 7 having a significant inhibitory effect.

[1] = test system: Nitrosomonas europaea (NBRC 14298); test: Nitrification activity inhibition experiment, Nitrosomonas europaea (NO2- production, improved Griess method); settings: 2 hours, 25° C., dark
Method: Standard: a syringic acid standard was purchased from Sigma-Aldrich (St. Louis, Mo., USA), and the solid powder thereof was weighed and dissolved in DMSO. A 1,9-decanediol standard was purchased from WuXi AppTec, and the solid powder thereof was dissolved in DMSO while frozen over the dry ice (the 1,9-decanediol standard was a viscous liquid substance under normal temperature). Microbial strains: Nitrosomonas europaea (NBRC 14298) was purchased from Biological Resource Center, NITE, Japan. Microbial culture medium: a HEPES medium, which contained 2.5 g of (NH4)2SO4, 0.5 g of KH2PO4, 11.92 g of HEPES, 0.5 g of NaHCO3, 100 mg of MgSO4.7H2O, 5 mg of CaCl2.2H2O, and 75 mg of Fe-EDTA per 1 L liquid medium, at pH 7.8-8.0. Culture of microorganisms: Nitrosomonas europaea was inoculated in the HEPES medium and cultured at 30° C. and 200 rpm under a dark condition (aerobic), and the Nitrosomonas europaea enters a stable period 7-9 days after transfer each time. Nitrification activity inhibition experiment: The bacterial solution cultured for 7 days was collected, centrifuged at 5000 g for 20 min, and resuspended in a fresh and sterile HEPES medium until the OD600 reached about 1.0, with a concentration multiple of 40-50 times. Taken was a 1.5 mL sterile centrifuge tube, and it was sequentially added with 195 μL of sterile water, 5 μL of different concentrations of solutions of syringic acid and 1,9-decanediol in DMSO, 100 μL of the fresh and sterile HEPES medium, and 200 μL of a resuspended bacterial solution, and then cultured in a water bath at 25° C. under a dark condition for 2 hours. Then the mixed system was added with 20 μL of 0.1M Allylthiourea to terminate the nitrosification. […] of the reacted mixture was added into a 10 mL colorimetric tube, diluted to about 5 mL with deionized water, added with 1 mL of a sulfanilic acid solution, shaken well and then subjected to standing for 2-8 min, then added with 1 mL of a hydrochloric acid N-(1-naphthyl)-ethylenediamine solution, shaken well, diluted to 10 mL with water to obtain a constant volume. Deionized water was used as a reference, and the absorbances were determined at a wavelength of 540 nm. The reticle of NO2^− was made in the same manner to quantify the NO2^− generated in the sample system, and the sample inhibition rate was calculated by the following formula. This determination method was an improved Griess method, which could be referred to the national standard “determination of nitrite in the wet precipitation -N-(1-naphthyl)-1,2-diaminoethane spectrophotometry”. Nitrosification inhibition rate (%)=(1-the produced amount of NO2^− of the sample/the produced amount of NO2^− of a blank)×100%

[2] = test system: Nitrosomonas stercoris (NBRC 110753); test: Nitrification activity inhibition experiment, Nitrosomonas stercoris (NO2- production, improved Griess method); settings: 2 hours, 25° C., dark
Method: Nitrification activity inhibition experiment: The bacterial solution cultured for 7 days was collected, centrifuged at 5000 g for 20 min, and resuspended in a fresh and sterile HEPES medium until the OD600 reached about 1.0, with a concentration multiple of 40-50 times. Taken was a 1.5 mL sterile centrifuge tube, and it was sequentially added with 195 μL of sterile water, 5 μL of different concentrations of solutions of syringic acid and 1,9-decanediol in DMSO, 100 μL of the fresh and sterile HEPES medium, and 200 μL of a resuspended bacterial solution, and then cultured in a water bath at 25° C. under a dark condition for 2 hours. Then the mixed system was added with 20 μL of 0.1M Allylthiourea to terminate the nitrosification. […] of the reacted mixture was added into a 10 mL colorimetric tube, diluted to about 5 mL with deionized water, added with 1 mL of a sulfanilic acid solution, shaken well and then subjected to standing for 2-8 min, then added with 1 mL of a hydrochloric acid N-(1-naphthyl)-ethylenediamine solution, shaken well, diluted to 10 mL with water to obtain a constant volume. Deionized water was used as a reference, and the absorbances were determined at a wavelength of 540 nm. The reticle of NO2^− was made in the same manner to quantify the NO2^− generated in the sample system, and the sample inhibition rate was calculated by the following formula. This determination method was an improved Griess method, which could be referred to the national standard “determination of nitrite in the wet precipitation -N-(1-naphthyl)-1,2-diaminoethane spectrophotometry”. Nitrosification inhibition rate (%)=(1-the produced amount of NO2^− of the sample/the produced amount of NO2^− of a blank)×100% The selection and formulation of the standard were the same as those of Embodiment 1. Microbial Strains: Nitrosomonas stercoris (NBRC 110753) was purchased from Biological Resource Center, NITE, Japan. The microbial culture medium and microbial culture were the same as those of Embodiment 1. Nitrification activity inhibition experiment: The bacterial solution of Nitrosomonas stercoris cultured for 7 days was collected, centrifuged at 5000 g for 20 min, and resuspended in a fresh and sterile HEPES medium until the OD600 reached about 1.0, with a concentration multiple of 40-50 times. Taken was a 1.5 mL sterile centrifuge tube, and it was sequentially added with 195 μL of sterile water, 5 μL of different concentrations of solutions of syringic acid and 1,9-decanediol in DMSO, 100 μL of the fresh and sterile HEPES medium, and 200 μL of a resuspended bacterial solution, and then cultured in a water bath at 25° C. under a dark condition for 2 hours. Then the mixed system was added with 20 μL of 0.1M Allylthiourea to terminate the nitrosification. […]

SMILES | inhibitory activity to the Nitrosomonas (Nitrosomonas; syringic acid alone) | effect concentration for promoting the inhibition of 1,9-decanediol to the nitrosification activity of the Nitrosomonas (Nitrosomonas; syringic acid combined with 1,9-decanediol) [µg/mL] | inhibition rate for the nitrosification process of Nitrosomonas europaea ([1]; 1,9-decanediol added alone) [%] | nitrification inhibition rate ([1]; 1,9-decanediol plus syringic acid at 10 μ·mL^−1) [%] | nitrification inhibition rate ([1]; 1,9-decanediol plus syringic acid at 100 μ·mL^−1) [%] | nitrification inhibition rate ([1]; 1,9-decanediol plus syringic acid at 500 μ·mL^−1) [%] | inhibition rate (nitrification inhibition effect on Nitrosomonas stercoris) ([2]; 1,9-decanediol plus 10 μg·mL^−1 of syringic acid) [%] | inhibition rate (nitrification inhibition effect on Nitrosomonas stercoris) ([2]; 1,9-decanediol plus 100 μg·mL^−1 of syringic acid) [%] | inhibition rate (nitrification inhibition effect on Nitrosomonas stercoris) ([2]; 1,9-decanediol plus 500 μg·mL^−1 of syringic acid) [%] | inhibition rate (nitrification inhibition effect on Nitrosomonas stercoris) ([2]; 1,9-decanediol without syringic acid) [%]
COc1cc(C(=O)O)cc(OC)c1O [syringic acid, 4-Hydroxy 3,5-dimethoxybenzoic acid] | no significant inhibitory activity | 10 to 500 | – | – | – | – | – | – | – | –
CC(O)CCCCCCCCO (stereo not shown) [1,9-decanediol] | – | – | 41.2 | 51.7 | 61.1 | 69.2 | 60.5 | 70.2 | 89.9 | 51.5
